In brackets after ≈: the same amount, converted by molar mass. Activity calls are given as the source filed them. The calls are words filed in the database; no cut-off is given here.
Assays:
Assay type in all cases: functional
Staphylococcus aureus [1] = experiment: Antibacterial activity against Staphylococcus aureus ATCC 6538 after 18 hrs by twofold serial agar dilution technique; conditions: ATCC 6538, 18 h
Staphylococcus aureus [2] = experiment: Antibacterial activity against Staphylococcus aureus NCTC 4163 after 18 hrs by twofold serial agar dilution technique; conditions: NCTC 4163, 18 h
Proteus vulgaris [3] = experiment: Antibacterial activity against Proteus vulgaris NCTC 4635 assessed as zone of inhibition at 400 ug/disc after 18 hrs by disc diffusion method; conditions: NCTC 4635, 18 h, read-out: DIZ
Escherichia coli [4] = experiment: Antibacterial activity against Escherichia coli ATCC 10538 assessed as zone of inhibition at 400 ug/disc after 18 hrs by disc diffusion method; conditions: ATCC 10538, 18 h, read-out: DIZ
Candida parapsilosis = experiment: Antifungal activity against Candida parapsilosis ATCC 22019 after 24 hrs by twofold serial agar dilution technique; conditions: for MIC: Lodderomyces parapsilosis, ATCC 22019, 24 h
Pseudomonas aeruginosa [5] = experiment: Antibacterial activity against Pseudomonas aeruginosa ATCC 15442 assessed as zone of inhibition at 400 ug/disc after 18 hrs by disc diffusion method; conditions: ATCC 15442, 18 h, read-out: DIZ
Pseudomonas aeruginosa [6] = experiment: Antibacterial activity against Pseudomonas aeruginosa ATCC 27853 after 18 hrs by twofold serial agar dilution technique; conditions: for MIC: ATCC 27853, 18 h
[7] = system: Bordetella bronchiseptica; experiment: Antibacterial activity against Bordetella bronchiseptica ATCC 4617 after 18 hrs by twofold serial agar dilution technique; conditions: for MIC: ATCC 4617, 18 h
Escherichia coli [8] = experiment: Antibacterial activity against Escherichia coli ATCC 10538 after 18 hrs by twofold serial agar dilution technique; conditions: for MIC: ATCC 10538, 18 h
[9] = system: Staphylococcus epidermidis; experiment: Antibacterial activity against Staphylococcus epidermidis ATCC 35984 after 18 hrs by twofold serial agar dilution technique; conditions: ATCC 35984, 18 h
Staphylococcus aureus [10] = experiment: Antibacterial activity against Staphylococcus aureus ATCC 25923 after 18 hrs by twofold serial agar dilution technique; conditions: ATCC 25923, 18 h
Escherichia coli [11] = experiment: Antibacterial activity against Escherichia coli ATCC 25922 assessed as zone of inhibition at 400 ug/disc after 18 hrs by disc diffusion method; conditions: ATCC 25922, 18 h, read-out: DIZ
Staphylococcus aureus [12] = experiment: Antibacterial activity against Staphylococcus aureus ATCC 25923 assessed as zone of inhibition at 400 ug/disc after 18 hrs by disc diffusion method; conditions: ATCC 25923, 18 h, read-out: DIZ
Escherichia coli [13] = experiment: Antibacterial activity against Escherichia coli NCTC 8196 assessed as zone of inhibition at 400 ug/disc after 18 hrs by disc diffusion method; conditions: NCTC 8196, 18 h, read-out: DIZ
[14] = system: Staphylococcus epidermidis; experiment: Antibacterial activity against Staphylococcus epidermidis ATCC 12228 assessed as zone of inhibition at 400 ug/disc after 18 hrs by disc diffusion method; conditions: ATCC 12228, 18 h, read-out: DIZ
Staphylococcus aureus [15] = experiment: Antibacterial activity against Staphylococcus aureus NCTC 4163 assessed as zone of inhibition at 400 ug/disc after 18 hrs by disc diffusion method; conditions: NCTC 4163, 18 h, read-out: DIZ
Proteus vulgaris [16] = experiment: Antibacterial activity against Proteus vulgaris NCTC 4635 after 18 hrs by twofold serial agar dilution technique; conditions: for MIC: NCTC 4635, 18 h
Pseudomonas aeruginosa [17] = experiment: Antibacterial activity against Pseudomonas aeruginosa NCTC 6749 after 18 hrs by twofold serial agar dilution technique; conditions: for MIC: NCTC 6749, 18 h
[18] = system: Bordetella bronchiseptica; experiment: Antibacterial activity against Bordetella bronchiseptica ATCC 4617 assessed as zone of inhibition at 400 ug/disc after 18 hrs by disc diffusion method; conditions: ATCC 4617, 18 h, read-out: DIZ
Staphylococcus aureus [19] = experiment: Antibacterial activity against Staphylococcus aureus ATCC 29213 assessed as zone of inhibition at 400 ug/disc after 18 hrs by disc diffusion method; conditions: ATCC 29213, 18 h, read-out: DIZ
Candida albicans [20] = experiment: Antifungal activity against Candida albicans ATCC 10231 after 24 hrs by twofold serial agar dilution technique; conditions: for MIC: ATCC 10231, 24 h
[21] = system: Staphylococcus epidermidis; experiment: Antibacterial activity against Staphylococcus epidermidis ATCC 35984 assessed as zone of inhibition at 400 ug/disc after 18 hrs by disc diffusion method; conditions: ATCC 35984, 18 h, read-out: DIZ
Staphylococcus aureus [22] = experiment: Antibacterial activity against Staphylococcus aureus ATCC 6538 assessed as zone of inhibition at 400 ug/disc after 18 hrs by disc diffusion method; conditions: ATCC 6538, 18 h, read-out: DIZ
Candida albicans [23] = experiment: Antifungal activity against Candida albicans ATCC 90028 after 24 hrs by twofold serial agar dilution technique; conditions: for MIC: ATCC 90028, 24 h
Pseudomonas aeruginosa [24] = experiment: Antibacterial activity against Pseudomonas aeruginosa ATCC 27853 assessed as zone of inhibition at 400 ug/disc after 18 hrs by disc diffusion method; conditions: ATCC 27853, 18 h, read-out: DIZ
Escherichia coli [25] = experiment: Antibacterial activity against Escherichia coli NCTC 8196 after 18 hrs by twofold serial agar dilution technique; conditions: for MIC: NCTC 8196, 18 h
Pseudomonas aeruginosa [26] = experiment: Antibacterial activity against Pseudomonas aeruginosa ATCC 15442 after 18 hrs by twofold serial agar dilution technique; conditions: for MIC: ATCC 15442, 18 h
Pseudomonas aeruginosa [27] = experiment: Antibacterial activity against Pseudomonas aeruginosa NCTC 6749 assessed as zone of inhibition at 400 ug/disc after 18 hrs by disc diffusion method; conditions: NCTC 6749, 18 h, read-out: DIZ
Escherichia coli [28] = experiment: Antibacterial activity against Escherichia coli ATCC 25922 after 18 hrs by twofold serial agar dilution technique; conditions: ATCC 25922, 18 h
[29] = system: Staphylococcus epidermidis; experiment: Antibacterial activity against Staphylococcus epidermidis ATCC 12228 after 18 hrs by twofold serial agar dilution technique; conditions: ATCC 12228, 18 h
Staphylococcus aureus [30] = experiment: Antibacterial activity against Staphylococcus aureus ATCC 29213 after 18 hrs by twofold serial agar dilution technique; conditions: ATCC 29213, 18 h

Row | SMILES | MIC (Staphylococcus aureus [1]) [µg/mL] | MIC (Staphylococcus aureus [2]) [µg/mL] | zone of inhibition at 400 µg/disc (Proteus vulgaris [3]) [mm] | zone of inhibition at 400 µg/disc (Escherichia coli [4]) [mm] | MIC (Candida parapsilosis) [µg/mL] | zone of inhibition at 400 µg/disc (Pseudomonas aeruginosa [5]) [mm] | MIC (Pseudomonas aeruginosa [6]) [µg/mL] | MIC [7] [µg/mL] | MIC (Escherichia coli [8]) [µg/mL] | MIC [9] [µg/mL] | MIC (Staphylococcus aureus [10]) [µg/mL] | zone of inhibition at 400 µg/disc (Escherichia coli [11]) [mm] | zone of inhibition at 400 µg/disc (Staphylococcus aureus [12]) [mm] | zone of inhibition at 400 µg/disc (Escherichia coli [13]) [mm] | zone of inhibition at 400 µg/disc [14] [mm] | zone of inhibition at 400 µg/disc (Staphylococcus aureus [15]) [mm] | zone of inhibition at 400 µg/disc (Staphylococcus aureus [19]) [mm] | zone of inhibition at 400 µg/disc [21] [mm] | zone of inhibition at 400 µg/disc (Staphylococcus aureus [22]) [mm] | MIC (Staphylococcus aureus [30]) [µg/mL] | further results
1 | CC[C@@H](C(=O)[C@@H](C)[C@@H](O)[C@H](C)[C@@H]1O[C@@H]([C@@H](CC)C(=O)NCCOCCOCCOC)CC[C@@H]1C)[C@H]1O[C@]2(C=C[C@@H](O)[C@]3(CC[C@@](C)([C@H]4CC[C@](O)(CC)[C@H](C)O4)O3)O2)[C@H](C)C[C@@H]1C | ≥ 256 | ≥ 256 | 10 | 10 | ≥ 256 | 10 | ≥ 256 | ≥ 256 | ≥ 256 | ≥ 256 | ≥ 256 | 10 | 10 | 10 | 10 | 10 | 10 | 10 | 10 | ≥ 256 | MIC (Proteus vulgaris [16]): ≥ 256 µg/mL; MIC (Pseudomonas aeruginosa [17]): ≥ 256 µg/mL; zone of inhibition at 400 µg/disc [18]: 10 mm; MIC (Candida albicans [20]): ≥ 256 µg/mL; MIC (Candida albicans [23]): ≥ 256 µg/mL; zone of inhibition at 400 µg/disc (Pseudomonas aeruginosa [24]): 10 mm; MIC (Escherichia coli [25]): ≥ 256 µg/mL; MIC (Pseudomonas aeruginosa [26]): ≥ 256 µg/mL; zone of inhibition at 400 µg/disc (Pseudomonas aeruginosa [27]): 10 mm; MIC (Escherichia coli [28]): ≥ 256 µg/mL; MIC [29]: ≥ 256 µg/mL
2 | CCCCNC(=O)[C@H](CC)[C@H]1CC[C@H](C)[C@H]([C@@H](C)[C@H](O)[C@H](C)C(=O)[C@H](CC)[C@H]2O[C@]3(C=C[C@@H](O)[C@]4(CC[C@@](C)([C@H]5CC[C@](O)(CC)[C@H](C)O5)O4)O3)[C@H](C)C[C@@H]2C)O1 | ≥ 256 | ≥ 256 | 10 | 10 | ≥ 256 | 10 | ≥ 256 | ≥ 256 | ≥ 256 | ≥ 256 | ≥ 256 | 10 | 10 | 10 | 10 | 10 | 10 | 10 | 10 | ≥ 256 | MIC (Proteus vulgaris [16]): ≥ 256 µg/mL; MIC (Pseudomonas aeruginosa [17]): ≥ 256 µg/mL; zone of inhibition at 400 µg/disc [18]: 10 mm; MIC (Candida albicans [20]): ≥ 256 µg/mL; MIC (Candida albicans [23]): ≥ 256 µg/mL; zone of inhibition at 400 µg/disc (Pseudomonas aeruginosa [24]): 10 mm; MIC (Escherichia coli [25]): ≥ 256 µg/mL; MIC (Pseudomonas aeruginosa [26]): ≥ 256 µg/mL; zone of inhibition at 400 µg/disc (Pseudomonas aeruginosa [27]): 10 mm; MIC (Escherichia coli [28]): ≥ 256 µg/mL; MIC [29]: ≥ 256 µg/mL
3 | O=C(O)c1cn(C2CC2)c2cc(N3CCNCC3)c(F)cc2c1=O [CIPROFLOXACIN] |  |  |  |  |  |  |  |  |  | 0.25 (≈ 0.754 µM) |  |  | 26 |  | 30 | 26 | 22 | 32 | 28 | 0.25 (≈ 0.754 µM) | Activity (Candida parapsilosis): inactive; Activity (Pseudomonas aeruginosa [6]): inactive; Activity [7]: inactive; Activity (Escherichia coli [8]): inactive; Activity (Proteus vulgaris [16]): inactive; Activity (Pseudomonas aeruginosa [17]): inactive; Activity (Candida albicans [20]): inactive; Activity (Candida albicans [23]): inactive; Activity (Escherichia coli [25]): inactive; Activity (Pseudomonas aeruginosa [26]): inactive
